Measured values published in patent US20220372008A1 (VIDYASIRIMEDHI INSTITUTE OF SCIENCE AND TECHNOLOGY, priority 2019, published 2022).

B1: HadA G513T: modified HadA, thermostable dehalogenase with amino acid sequence SEQ ID NO.1 (protein, listed as Escherichia coli)
chain: MIRTGTQYLESLNDGRNVWVGNEKIDNVATHPKTRDYAQRHADFYDLHHRPDLQDVMTYIDEGGQRRAMQWFGHRDKEQLRRKRKYHETVMREMAGASFPRTPDVNNYVLTTYIDDPAPWETQSIGDDGHIKAGKIVDFIRYAREHDLNCAPQFVDPQMDRSNPDAQERSPGLRVVEKNEKGIVVNGVKAIGTGVAFADWIHIGVFFRPGIPGDQVIFAATPVNTPGVTIVCRESLVKDDKVEHPLAAQGDELDGMTVFENVFIPWSHVFHIGNPNHAKLYPQRVFDWLHYHALIRQMVRAELVAGLAVLITEHIGTNKIPAVQTRVAKLIGFHQAMLAHLIASEELGFHTPGGHYKPNILIYDFGRALYLENFSQMIYELVDLSGRSALIFASEDQWNDDKLNGWFERMNNGPVGRPHDRVKIGRVIRDLFLTDWGSRLFVFENFNGTPLQGIRMLTMQRAEFSGSGPYGKLARQVCGIDSAVTDDTEYRKTADYAKALDAARHQEEVALATAMAI

Tests used:
firefly luciferase = firefly luciferase (Photinus pyralis, UniProt P08659)
Sequence of firefly luciferase (P08659 whole entry): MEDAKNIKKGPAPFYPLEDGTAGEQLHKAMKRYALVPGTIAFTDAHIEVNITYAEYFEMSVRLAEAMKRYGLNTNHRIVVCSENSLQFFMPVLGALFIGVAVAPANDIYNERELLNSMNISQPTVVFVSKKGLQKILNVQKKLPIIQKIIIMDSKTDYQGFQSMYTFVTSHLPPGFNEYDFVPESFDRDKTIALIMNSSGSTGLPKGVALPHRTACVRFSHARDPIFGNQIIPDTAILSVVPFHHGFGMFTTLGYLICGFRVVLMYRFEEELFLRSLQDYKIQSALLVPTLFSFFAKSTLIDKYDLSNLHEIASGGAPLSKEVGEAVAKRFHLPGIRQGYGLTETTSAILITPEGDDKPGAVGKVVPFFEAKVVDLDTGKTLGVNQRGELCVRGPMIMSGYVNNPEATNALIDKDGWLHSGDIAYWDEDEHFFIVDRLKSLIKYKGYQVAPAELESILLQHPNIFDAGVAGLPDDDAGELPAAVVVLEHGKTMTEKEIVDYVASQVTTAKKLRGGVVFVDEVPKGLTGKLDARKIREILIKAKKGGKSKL
Experimental: The pure luciferin and the purified luciferin derivatives, which are derived from the synthesis and purification methods, reacts with the firefly luciferase, and then the emission wavelength is measured.
The reaction between the luciferin derivatives of the present disclosure and the firefly luciferase can emit the light.

[1] = assay type: physicochemical
Experimental: The term “thermostable dehalogenase” used herein refers to the dehalogenase or HadA, which is reengineered or modified, particularly modified on the surface of a wild-type dehalogenase or HadA. The reengineered or modified dehalogenase or HadA, which is called a thermostable HadA or HadA G513T, has an improvement on a temperature stability. The catalytic efficiency of the thermostable HadA or HadA G513T is in a broader range of temperature from 25-50° C. Further, the wild-type dehalogenase or HadA is a dechlorinating monooxygenase that can catalyze the elimination of nitro- and halides (F, Cl, Br, I) group from nitro- and halogenated phenols substrate. The wild type HadA can catalyze the reaction at 25° C. for 24 h. Whereas the reaction at higher temperature (>30° C.), the half-life of wild type HadA is dramatically decrease for 20 min. In accordance with various embodiments, the present disclosure relates to luciferin derivatives and a method for synthesis of the luciferin derivatives.
The thermostable dehalogenase is a modified HadA, particularly HadA G513T (Thermostable dehalogenase; HadA G513T), containing an amino acid sequence, which is set forth in SEQ ID NO.1 as shown in FIG. 8. The thermostable dehalogenase or HadA G513T is able to catalyze in a range of temperature from 25-50° C. and its half-life at 50° C. is 200 min. However, […]

Molecule | emitting wavelength as substrate for the firefly luciferase (firefly luciferase; spectrofluorometer under bioluminescent mode) | maximum emission wavelength (firefly luciferase; substrate for wild-type firefly luciferase, FIG. 5) | half-life [1]
7′-bromoluciferin | 604 nm | 604 nm | –
B1 | – | – | 3.33 h
